Experimental data from the SangsterLogP compilation.

Assay: method code SF, from DOI: 10.1021/jf00070a034

SMILES | logP
C=CC(C)C(=O)Nc1ccc(Cl)c(Cl)c1 (stereo not drawn) | 3.49
CCNc1nc(Cl)nc(NCC2CC2)n1 | 2.85
CCCC(C)C(=O)Nc1ccc(C)c(Cl)c1 (stereo not drawn) | 4.31
CCNc1nc(Cl)nc(NC2CCCCC2)n1 | 3.63
CN(C)C(=O)Nc1ccc(Cl)cc1 | 2.01
CCNc1nc(Cl)nc(NC2CCC2)n1 | 2.77
CN(C)C(=O)Nc1cccc(Cc2ccccc2)c1 | 2.83
CNC(=O)Nc1cccc(OC)c1 | 1.26
CCCC(C)(C)C(=O)Nc1ccc(Cl)cc1 | 3.83
CCCc1ccc(NC(=O)N(C)C)cc1 | 2.55
CCNc1nc(Cl)nc(NC2CC2)n1 | 2.13
CCCCCC(C)Nc1nc(Cl)nc(NCC)n1 (stereo not drawn) | 4.74
C=CCNc1nc(Cl)nc(NCC=C)n1 | 2.75
O=C(Cc1ccccc1)Nc1ccc([N+](=O)[O-])cc1 | 3.17
O=C(Cc1ccccc1)Nc1ccccc1 | 2.72
CC1(NC(=O)Nc2ccccc2)CCCCC1 | 3.6
CN(C)C(=O)Nc1cccc(CCc2ccccc2)c1 | 3.21
CC(C)CNC(=O)Nc1ccc(Cl)c(Cl)c1 | 4.48
